Assay results: article PMC6344423, “Opposing Actions of Adrenocorticotropic Hormone and Glucocorticoids on UCP1-Mediated Respiration in Brown Adipocytes” (Frontiers in Physiology, 2019)

Assays:
[1] = tested on: cytosolic cAMP in primary brown adipocytes; experiment: Quantification of cellular cAMP (cAMP-Glo Assay); format: cell-based, mouse
Procedure: Changes in cytosolic cAMP concentrations were determined in primary brown adipocytes in response to ACTH- or isoproterenol stimulation using cAMP-Glo Assay (Promega) following the manufacturer’s instructions.

[2] = tested on: primary brown adipocytes; experiment: Microplate-based respirometry (XF96), UCP1-mediated uncoupled respiration; format: cell-based, mouse
Procedure: (§1) Oxygen consumption of primary brown adipocytes was measured at 37°C using microplate-based respirometry (XF96 extracellular flux analyzer, Seahorse Bioscience) as described previously ([Li et al., 2014b]) following the subsequent protocol at day 7 of differentiation. Prior to the respiration measurement, primary cells were washed with warmed, unbuffered assay medium (DMEM basal medium supplemented with 25 mM glucose, 31 mM NaCl, 2 mM GlutaMax and 15 mg/l phenol red, pH 7.4) (basal assay medium). Subsequent to the medium replacement with basal assay medium containing 1–2% essentially fatty acid free bovine serum albumin (BSA), cells were incubated at 37°C in a CO2-free incubator for 1 h. Assay reagents were loaded into the drug injections ports of the sensor cartridges at 10X in basal assay medium (no BSA). After assessment of basal oxygen consumption in untreated cells oligomycin (5 μM) was injected to inhibit coupled respiration and to determine basal leak respiration. Next, effector was added to investigate UCP1-dependant uncoupled respiration. By the addition of FCCP (1 μM) maximal respiratory capacity was determined. Lastly, non-mitochondrial oxygen consumption was assessed by blocking mitochondrial respiration with antimycin A (5 μM). For some experiments, cells were pretreated for 1 h with 50 μM H89 (PKA inhibitor), 1–100 μM propranolol (β-adrenergic receptor antagonist), 40 μM Atglistatin (ATGL inhibitor) and 40 μM Hi76-0079 (HSL inhibitor) 1 h prior to the measurement. Oxygen consumption rates were automatically calculated by the Seahorse XF-96 software. Each experiment was repeated at least three times with similar results and five to eight replicate wells for every condition in each independent experiment. Results are predominately expressed as stimulated respiration which is calculated as fold increase of basal leak.
In our first screen, we tested whether these GsPCR ligands can activate oxygen consumption acutely in brown adipocytes. UCP1-mediated uncoupled respiration was quantified in cultured adherent intact primary brown adipocytes, according to a protocol established in our lab ([Li et al., 2014b]). After recording basal respiration and the fraction of coupled and uncoupled respiration, UCP1-dependent respiration was measured. Finally, maximal respiratory capacity and non-mitochondrial oxygen consumption were assessed by adding the uncoupling agent carbonyl cyanide 4-(trifluoromethoxy) phenylhydrazone (FCCP) and antimycin A was added to block the electron transport chain, respectively. All respiration assays were performed in the presence of BSA to buffer free fatty acid (FFA) levels in the respiration medium.

[3] = tested on: Ucp1 mRNA in primary white adipocytes; experiment: Ucp1 gene expression analysis (qRT-PCR), white adipocytes; format: cell-based, mouse; conditions: two different doses of ACTH, iWAT adipocytes, normalized to Gtf2b, n = 4, Figure 3B
Procedure: (§2) Total RNA was isolated using Trisure (Bioline) and purified with SV total RNA Isolation System (Promega). Reverse transcriptase reactions were performed using SensiFAST cDNA Synthesis Kit (Bioline). Quantitative real-time PCR (qRT-PCR) was performed with SYBR green fluorescent dye in 384-well format using LightCycler 480 (Roche). General Transcription Factor IIB (Gtf2b) served as an internal control. To be able to calculate relative gene expression levels of samples, standard reactions containing serial diluted pooled cDNA of all samples (Pure, 1:2, 1:4, 1:8, 1:16, 1:32 and 1:64) as a template were used to establish a standard curve. The RNA abundance of Ucp1 gene was normalized to the housekeeping gene Gtf2b. The following primers were used: […]

[4] = tested on: Ucp1 gene expression in primary brown adipocytes of Ucp1^ki/ki mice; experiment: Luciferase assay, FLUC activity as surrogate for Ucp1 expression; format: cell-based, mouse; conditions: overnight stimulation, normalized to total protein content, n = 3, Figure 1D
Procedure: After overnight stimulation of primary brown adipocytes of Ucp1^ki/ki mice luciferase activity was assayed using a commercial kit system (Luciferase Assay System Freezer Pack E4030, Promega GmbH). Primary cells were lysed in 1x reporter lysis buffer by shaking for 20 min at room temperature. 10 μl lysate was mixed with 50 μl luciferase assay substrate solution, and the mixture was measured by FB12 in a luminometer (Single Tube Luminometer, Titertek-Berthold GmbH). Bioluminescence readouts were normalized to total protein content.
We then measured FLUC activity in primary brown adipocytes from Ucp1^ki/ki reporter gene mice to determine the effect of the GsPCR ligands on Ucp1 gene expression in response to overnight stimulation. As the expression of Fluc in these cells is driven by Ucp1promoter, FLUC activity served as a surrogate for Ucp1 expression.

[5] = tested on: Ucp1 mRNA in primary brown adipocytes; experiment: Ucp1 gene expression analysis (qRT-PCR), brown adipocytes; format: cell-based, mouse
Procedure: as §2

[6] = tested on: primary brown adipocytes of UCP1^-/-; experiment: Respirometry in primary brown adipocytes of UCP1^-/- mice; format: cell-based, mouse; conditions: ACTH 1 μM, n = 3, Figure 2G
Procedure: as §1, with “Next, effector was added to investigate UCP1-dependant uncoupled respiration.” left out, “For some experiments, cells were pretreated for 1 h with 50 μM H89 (PKA inhibitor), 1–100 μM propranolol (β-adrenergic receptor antagonist), 40 μM Atglistatin (ATGL inhibitor) and 40 μM Hi76-0079 (HSL inhibitor) 1 h prior to the measurement.” left out, “Each experiment was repeated at least three times with similar results and five to eight replicate wells for every condition in each independent experiment.” left out

[7] = tested on: immortalized murine adipocytes; conditions: ref Iwen et al., 2008, van den Beukel et al., 2014; cited from earlier work
Description: (§3) The melanocortins ACTH and α-MSH are known for their lipolytic action in rodent adipocytes, as first reported in 1958 ([Lafontan, 2012]; [Braun et al., 2018]). […] ACTH enhanced BAT function in obese rats ([York and Al-Baker, 1984]), and increased glucose transport and respiration in isolated brown adipocytes ([Marette and Bukowiecki, 1990]) via fatty acid activation of mitochondrial uncoupled respirati ...

[8] = tested on: T37i cells; conditions: ref Iwen et al., 2008, van den Beukel et al., 2014; cited from earlier work
Description: as §3

[9] = tested on: BAT; conditions: supraphysiological dose, 15 μM ACTH; ref van den Beukel et al., 2014; cited from earlier work
Description: as §3

[10] = dose–response experiment, Figure 2A

## ACTH: Murine ACTH(1-39), 39 amino acid peptide hormone, ligand for the melanocortin 2 receptor (MC2R) (SYSMEHFRWGKPVGKKRRPVKVYPNVAENESAEAFPLEF; Corticotropin; UniProt P01193 124-162, looked up)
[1]; increasing concentrations, 30 min, n = 3, Figure 2D
  Cytosolic cAMP levels after ACTH stimulation: dose-dependent increase of cytosolic cAMP levels
[1]; stimulation for 30 min, n = 3, non-linear regression, Figure 2D
  EC50: 1.49 µM
[2]; [10]
  ACTH concentration that stimulated respiration (fold increase over basal leak respiration): 200 nM
  ACTH concentration with the most robust effect on stimulated respiration: 1 µM
[2]; primary brown adipocytes (129S6 mice), acute addition after oligomycin 5 μM, medium with 1–2% fatty acid free BSA, 37°C, n = 5, Figures 1B,C
  Stimulated respiration (UCP1-dependent uncoupled respiration) as fold increase of basal leak respiration, GsPCR ligand screen: most prominent induction of UCP1-dependant uncoupled respiration
[3]
  Ucp1 mRNA levels, differentiated white adipocytes: dose-dependent increase in Ucp1 mRNA levels
[4]
  FLUC (luciferase) activity as surrogate for Ucp1 expression: moderate rise in FLUC activity
[5]; 1 μM ACTH vs ISO 500 nM, Figures 3A,B
  Maximal induction of Ucp1 mRNA relative to ISO: comparable to the effect of ISO treatment
[5]; two different doses of ACTH, normalized to Gtf2b, n = 4, Figure 3A
  Ucp1 mRNA levels, differentiated brown adipocytes: dose-dependent increase in Ucp1 mRNA levels
[6]
  ACTH-stimulated respiration in UCP1^-/- compared to UCP1^+/+ cells: attenuated in primary brown adipocytes of UCP1^-/-
[7]
  ACTH concentration at which adipocytes respond in cell culture: 100 nM
[8]
  ACTH concentration at which adipocytes respond in cell culture: 50 nM
[9]
  Glucose uptake into BAT: increased glucose uptake into BAT
